This is an account of results in US8309790B2, “Animal models for demyelination disorders” (University of Chicago, priority 2005, dated 2012).

For assay [1], the system named is transgenic littermates overexpressing IFN-γ and/or SOCS1. Kind of assay: IFN-γ-overexpressing mice crossed to PLP/SOCS1 mice, clinical and histological evaluation at postnatal day 21. The assay is classed as in vivo. The following applies: for oligodendrocyte density: corpus callosum, postnatal day 21; for G ratio (axon diameter/fiber diameter ratio): hypomyelination defined as G ratio>0.8. The source says:
The transgenic mice MBP/IFN-γ and GFAP/tTA×TRE/IFN-γ (lines 184/110 and 184/67) that overexpress IFN-γ in the CNS have been described elsewhere (Corbin et al., 1996; Gao et al., 2000; Lin et al., 2004, 2005). Briefly, MBP/IFN-γ mice are transgenic animals in which IFN-γ expression is driven by the myelin basic protein (MBP) transcriptional control region (Gao et al., 2000). GFAP/tTA×TRE/IFN-γ are double-transgenic mice obtained by mating single-transgenic GFAP/tTA to single-transgenic TRE/IFN-γ (lines 110 and 67) mice. The two TRE/IFN-γ mouse lines, line 110 and line 67, used in the experiments produce different amounts of IFN-γ when crossed to GFA/tTA mice (184/110 and 184/67) (Lin e al., 2004, 2005). GFAP/tTA×TRE/IFN-γ is a tetracycline-off-inducible system in which the glial fibrilary acidic protein (GFAP) transcriptional control region drives the expression of tTA, which in turn, binds to the TRE (tet responsive element) and initiates the expression of IFN-γ. Administration of doxycycline suppresses tTA DNA binding and IFN-γ expression, and doxycycline removal allows for temporally-controlled induction of IFN-γ expression (Gao et al., 1999).
IFN-γ-overexpressing mice were crossed to the PLP/SOCS1 mice in double-transgenic, (MBP/IFN-γ×PLP/SOCS1) and triple-transgenic (GFAP/tTA×TRE/IFN-γ×PLP/SOCS1) mating systems. MBP/IFN-γ×PLP/SOCS1 (172×PLP/SOCS1) mating was performed according to a standard mating protocol. The GFAP/tTA×TRE/IFN-γ×PLP/SOCS1 matings were performed in a 2-step mating process: GFAP/tTA mice were initially crossed to PLP/SOCS1 mice, and double-positive (184×PLP/SOCS1) offspring were then crossed to the TRE/IFN-γ lines 110 and 67, separately. This second mating step was performed according to the previously described “tet-off” protocol. Doxycycline 0.05 mg/ml (Sigma-Aldich) was added to the water of impregnated female mice until embryonic day 14, after which the animals were switched back to normal water, thereby allowing initiation of IFN-γ transcription, which peaks during the postnatal period (Lin et al., 2005).
The litters of the mating systems (F1 generation) were examined daily and sacrificed at postnatal day 21. Clinical evaluation included behavioral observation and challenged ladder walking to elicit tremor. Histological examination included quantitation of the number and density of oligodendrocytes and examination of the myelination patterns. Brain tissue was simultaneously obtained from each animal at the time of sacrifice to verify and measure the expression of IFN-γ and Flag-SOCS1 (see below). The clinical and histological findings were subsequently stratified according to genotype. All animal procedures were conducted in compliance with the National Institutes of Health Guide for Care and Use of Laboratory Animals and were approved by the Institutional Animal Care and Use Committee at The University of Chicago.
Oligodendrocyte cell density was assessed digitally using Axiovision software, at postnatal day 21, as previously described (Lin et al., 2005). The brains were sectioned sagittally through the corpus callosum dividing the brain in two symmetrical halves. Ten frozen sections from each half were prepared at 7 μm thickness, and numbered in the sequence of their preparation. The brains of three animals per study group were prepared in this fashion. Following the CC1 immunostaining the corresponding area of corpus callosum of each section was digitally selected and the corresponding total area obtained. CC1 cell counting was performed manually within the selected areas of each section, and the number of CC1 positive cells per square area (mm^2) calculated. The results were presented as mean±SD of CC1 (+) cells/mm^2 with n=3 animals per study group. […]

Assay [2] has as its system oligodendrocytes in adult mice. Kind of assay: IFN-γ expression in the CNS of adult double transgenic mice (released from doxycycline at 4 weeks of age). In kind it is in vivo. The source says:
Compared with the actively myelinating oligodendrocytes of young growing animals, oligodendrocytes in adult mice produce lower levels of membrane proteins and lipids, just enough to maintain homeostasis in the myelin structure (Morell, et al. (1999) Basic Neurochemistry: Molecular, Cellular, and Medical Aspects (Philadelphia, Pa.: Lippincott-Raven Publishers): 69-93). The ER of oligodendrocytes in adult animals may thus have more spare capacity to process increased protein load and as such may be less sensitive to disruptions of the protein secretory pathway. To examine this possibility, double transgenic mice were allowed to develop to maturity, at which time IFN-γ expression in the CNS was initiated.

For interferon-γ [IFN-γ], the Incidence of tremor in assay [1] (172 × PLP/SOCS1 mating system, ten mice per group) is 0%. In addition, in assay [1] (184/67 × PLP/SOCS1 system), the oligodendrocytes lost entry is recorded as “approximately 40%”, the “percentage of unmyelinated axons” value is given as 57%±7, the oligodendrocyte density is on record as 79±9 CC1 (+) cells/mm^2 and the “G ratio (axon diameter/fiber diameter ratio)” value was 0.95±0.04. In addition, in assay [1] (184/110 × PLP/SOCS1 system), the oligodendrocytes lost result is “approximately 20%”, the “percentage of unmyelinated axons” value is listed as 41%±6, the oligodendrocyte density is listed as 115±8 CC1 (+) cells/mm^2 and the “G ratio (axon diameter/fiber diameter ratio)” value worked out at 0.89±0.02. Moreover, in assay [2] (10-week-old mice released from doxycycline at 4 weeks of age), the “BIP and CHOP in the cerebellum” value was “modest induction”. In assay [2] (adult mice, wild-type or PERK+/− background), the oligodendrocyte survival entry is “did not affect”.
